# Test results: patent publication US20060046976A1, “Method for increasing the bone mineral density and bone micro-architecture or connectivity of a mammal using N-acylated glucosamines” (priority 2004, published 2006)
# System: SCW-arthritis rats
# Assay: Three-dimensional isosurface of tibia (bone erosion), SCW-arthritis rats
# Format: in vivo, Lewis type rats
# Conditions: GlcNBu treated, especially high dose
# Excerpt: In this experiment performed and described herein, there were four groups of Lewis type rats, consisting of eight (8) animals in each group. Lewis type rats had experimental arthritis induced by a single intra-peritoneal injection of streptococcal cell wall antigen (SCW). This type of arthritis has an acute and chronic phase and affects mostly the distal joints in the hind limbs of the animals, and, less so, the knees and hips. Groups 1-3, inclusive, had inflammatory arthritis induced. The compound used in the experiment was used to supplement normal rat chow feed on a daily basis. Feed and water were unrestricted. […] All the dissected femurs and tibiae were scanned with dual energy x-ray absorptiometry (DXA) were measured at the distal femur, and proximal tibia using a user defined region of interest (ROI). • Micro-CT imaging protocol. […] The reconstructed tibia images were analyzed with MicroView 2.0 software (GE Healthcare, London, ON) in two and three dimensions. • Three-dimensional trabecular bone measurements. […] On 3D analysis, the tissue volume (3D-TV, mm3) and trabecular bone volume (3D-BV, mm3) were measured directly, and the fractional trabecular bone volume (3D-BV/TV, %) was calculated. […]
structure (smiles),measurement,value
"CCCC(=O)N[C@H]1C(O)O[C@H](CO)[C@@H](O)[C@@H]1O (stereo partly drawn) [GlcNBu, N-butyryl-D-glucosamine]",bone erosion at the joint margin (isosurfaces),effectively protects bone from further erosion
